Data set [1] has as its system Mus musculus. The experiment in a line: Toxicity in human A431 cells xenografted CD1 Harlan mouse assessed as body weight loss at 60 mg/kg, ip qd administered for 5 days. The data set is classed as organism-based, A-431. Further details: dose 60 mg/kg, route intraperitoneal. The settings on record: in vivo, 120 h.
For data set [2], the target named is T1, Heat shock protein HSP 90-beta (Homo sapiens, UniProt P08238). The experiment in a line: Binding affinity to Hsp90 after 4 hrs by fluorescence polarization assay. On the technique in general: In fluorescence polarisation assays a small probe gives low polarisation when free and higher when bound to something large.
The nature of data set [3]: Toxicity in human A431 cells xenografted ip dosed CD1 Harlan mouse. It is filed as organism-based, A-431. To be noted: in vivo. (In general: In xenograft studies the graft and the host belong to different species.)
For data set [4], the system named is A-431. Briefly: Antitumor activity against human A431 cells xenografted in CD1 Harlan mouse assessed as tumor volume inhibition at 60 mg/kg, ip qd administered for 5 days. It is filed as functional. The settings on record: A-431, ip, 120 h, route intraperitoneal.
The target in data set [5] is T1, Heat shock protein HSP 90-beta. Briefly: Inhibition of Hsp90 in human A431 cells assessed as reduction in EGFR protein expression after 24 hrs by Western blot analysis. To be noted: A-431. The data set is classed as cell-based. For orientation: A western blot detects proteins with antibodies after separation by electrophoresis.
The test system of data set [6] is NCI-H460. Briefly: Cytotoxicity against human NCI-H460 after 72 hrs by sulforhodamine B assay. The data set is classed as functional, cell-based. To be noted: NCI-H460, 72 h.
The target of data set [7] is T1, Heat shock protein HSP 90-beta. Briefly: Inhibition of Hsp90 in human A431 cells assessed as reduction in Akt protein expression after 24 hrs by Western blot analysis. The data set is classed as cell-based. To be noted: A-431.
For data set [8] the target is unchanged. The experiment in a line: Inhibition of Hsp90 in human A431 cells assessed as increase in Hsp70 protein expression at 0.075 to 1.2 uM after 24 hrs by Western blot analysis. The data set is classed as cell-based. To be noted: A-431.
Data set [9] shares this target. The experiment in a line: Inhibition of Hsp90 in human A431 cells assessed as reduction in CDK4 protein expression after 24 hrs by Western blot analysis. It is filed as cell-based. The settings on record: A-431.
Data set [10] shares this target. The experiment in a line: Inhibition of Hsp90 in human A431 cells assessed as increase in Hsp70 protein expression at 0.11 to 0.8 uM after 24 hrs by Western blot analysis. To be noted: A-431. The data set is classed as cell-based.
Data set [11] has the same target. The experiment in a line: Inhibition of Hsp90 in human A431 cells assessed as increase in Hsp70 protein expression at 0.0031 to 0.8 uM after 24 hrs by Western blot analysis. It is filed as cell-based. The settings on record: A-431.
For data set [12] the target is unchanged. The experiment in a line: Inhibition of Hsp90 in human A431 cells assessed as increase in Hsp70 protein expression at 0.01 to 0.814 uM after 24 hrs by Western blot analysis. The data set is classed as cell-based. To be noted: A-431.
The target is the same in data set [13]. Briefly: Inhibition of Hsp90 in human A431 cells assessed as increase in Hsp70 protein expression at 0.00493 to 1.2 uM after 24 hrs by Western blot analysis. It is filed as cell-based. The settings on record: A-431.
For data set [14] the target is unchanged. The experiment in a line: Inhibition of Hsp90 in human A431 cells assessed as increase in Hsp70 protein expression at 0.011 to 0.9 uM after 24 hrs by Western blot analysis. It is filed as cell-based. To be noted: A-431.
For data set [15], the system named is Mus musculus. The experiment in a line: Degradation of Akt in human A431 cells xenografted in CD1 Harlan mouse at 60 mg/kg, ip qd administered for 5 days measured 2 hrs post-last dose by Western blot analysis. It is filed as functional, organism-based. Further details: dose 60 mg/kg. To be noted: A-431.
The test system of data set [16] is Mus musculus. The experiment in a line: Increase of Hsp70 expression in human A431 cells xenografted in CD1 Harlan mouse at 60 mg/kg, ip qd administered for 5 days measured 2 hrs post-last dose by Western blot analysis. The data set is classed as functional, organism-based. Further details: dose 60 mg/kg. To be noted: A-431.
Data set [17] relates to Mus musculus. Briefly: Degradation of CDK4 in human A431 cells xenografted in CD1 Harlan mouse at 60 mg/kg, ip qd administered for 5 days measured 2 hrs post-last dose by Western blot analysis. It is filed as functional, organism-based. Further details: dose 60 mg/kg. To be noted: A-431.
Data set [18] deals with Mus musculus. Briefly: Degradation of EGFR in human A431 cells xenografted in CD1 Harlan mouse at 60 mg/kg, ip qd administered for 5 days measured 2 hrs post-last dose by Western blot analysis. More on the design: dose 60 mg/kg. The settings on record: A-431. It is filed as functional, organism-based.

The text below walks through data of ChEMBL document CHEMBL1938264, “Novel 3,4-isoxazolediamides as potent inhibitors of chaperone heat shock protein 90” (J Med Chem, 2011).

Activity calls are given as the source filed them. No cut-off for these calls is given here.

T1 sequence (P08238 whole entry): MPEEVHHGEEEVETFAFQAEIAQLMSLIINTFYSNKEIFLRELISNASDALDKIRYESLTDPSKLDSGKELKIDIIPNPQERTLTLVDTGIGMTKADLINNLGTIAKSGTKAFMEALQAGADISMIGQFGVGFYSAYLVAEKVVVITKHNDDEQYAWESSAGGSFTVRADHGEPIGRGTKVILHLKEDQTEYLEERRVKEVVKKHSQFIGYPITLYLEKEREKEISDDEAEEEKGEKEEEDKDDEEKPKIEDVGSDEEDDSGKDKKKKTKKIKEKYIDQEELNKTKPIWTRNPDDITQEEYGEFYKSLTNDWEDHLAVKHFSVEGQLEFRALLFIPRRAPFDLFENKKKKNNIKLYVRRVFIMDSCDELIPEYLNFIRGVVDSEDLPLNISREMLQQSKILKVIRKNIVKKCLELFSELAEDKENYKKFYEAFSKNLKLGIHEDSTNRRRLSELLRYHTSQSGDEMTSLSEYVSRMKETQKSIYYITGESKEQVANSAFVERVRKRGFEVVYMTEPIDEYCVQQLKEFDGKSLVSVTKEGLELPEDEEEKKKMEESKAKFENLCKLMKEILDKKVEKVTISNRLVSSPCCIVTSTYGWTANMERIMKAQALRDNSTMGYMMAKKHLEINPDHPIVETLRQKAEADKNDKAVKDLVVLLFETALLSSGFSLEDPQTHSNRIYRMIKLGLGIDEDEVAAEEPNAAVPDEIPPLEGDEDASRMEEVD

The term IC50 denotes the concentration that inhibits the measured activity by half. Lower therefore signals greater potency in that assay. For orientation: inhibition in vivo means how much of the control response was suppressed. `CCNC(=O)c1noc(-c2cc(C(C)C)c(O)cc2O)c1NC(=O)c1ccc(CN2CCOCC2)cc1`: in [1], the Activity came out at 2%. The IC50 in data set [2] is 71 nM; in data set [6], 95 nM. Moreover, the MTD in [3] was 60 mg/kg. The inhibition in vivo at 60 mg/kg in [4] was determined as 33%. For the same compound, the inhibition entry in data set [5], in data set [7] and in data set [9] was “Dose-dependent effect” throughout. Further, the inhibition entry in data set [8] was “Active”.
Take `CCNC(=O)c1noc(-c2cc(C(C)C)c(O)cc2O)c1NC(=O)c1sccc1C`: the IC50 turned out to be 84 nM in data set [2] and 17 nM in data set [6]. The inhibition entry in data set [10] is “Active”. For the same compound, the inhibition entry in data set [5], in [7] and in data set [9] was “Dose-dependent effect” throughout.
Consider `CCNC(=O)c1noc(-c2cc(C(C)C)c(O)cc2O)c1NC(=O)C(C)(C)C`, for which the IC50 in [2] came to 41 nM; in data set [6], 24 nM. For the same compound, the inhibition result in [5], in data set [7] and in data set [9] was “Dose-dependent effect” in each case. Besides, in data set [11], the inhibition entry is “Active”.
With `CCNC(=O)c1noc(-c2cc(C(C)C)c(O)cc2O)c1NC(=O)c1cc(CC)on1`, the IC50 in data set [2] was found to be 20 nM; in data set [6], 22 nM. For the same compound, the inhibition result in data set [5], in data set [7] and in data set [9] was “Dose-dependent effect” each time. In addition, the inhibition result in [12] is “Active”.
For `CCNC(=O)c1noc(-c2cc(C(C)C)c(O)cc2O)c1NC(=O)C1CCCCC1`, the values for the half-maximal inhibitory concentration (IC50) in data set [2] and in data set [6] were 190 nM and 16 nM, respectively. Moreover, the inhibition result in data set [5], in data set [7] and in data set [9] was “Dose-dependent effect” each time. The inhibition entry in data set [13] was “Active”.
Consider `CCNC(=O)c1noc(-c2cc(C(C)C)c(O)cc2O)c1NC(=O)[C@H]1CC[C@@H](OC)CC1`, for which the IC50 in data set [2] worked out at 24 nM; in [6], 13 nM. The inhibition entry in [5], in data set [7] and in data set [9] was “Dose-dependent effect” throughout. In addition, the inhibition result in [14] was “Active”.
Consider `CCNC(=O)c1noc(-c2cc(C(C)C)c(O)cc2O)c1-c1ccc(CN2CCOCC2)cc1` [LUMINESPIB], for which, in data set [1], the Activity was 8%. The MTD in data set [3] was determined as 60 mg/kg. The inhibition in vivo at 60 mg/kg in data set [4] stood at 48%. This compound came in with an IC50 in data set [6] of 2.4 nM.
`CCNC(=O)c1noc(-c2cc(C(C)C)c(O)cc2O)c1NC(=O)[C@@H]1CC[C@H](CN2CCOCC2)C1` (relative stereo): the concentration for half-maximal inhibition (IC50) was 12 nM in data set [2] and 170 nM in data set [6].
In the case of `CCNC(=O)c1noc(-c2cc(C(C)C)c(O)cc2O)c1NC(=O)CCN1CCOCC1`, the concentration for half-maximal inhibition (IC50) in [2] came out at 214 nM; in data set [6], 110 nM.
Regarding `CCNC(=O)c1noc(-c2cc(C(C)C)c(O)cc2O)c1NC(=O)C1CCC(C(C)(C)C)CC1` (stereo unspecified), the IC50 in data set [2] amounted to 30 nM; in [6] it was 200 nM.
On the same counts, the results for `CCNC(=O)c1noc(-c2cc(C(C)C)c(O)cc2O)c1NC(=O)c1ccc(C)o1` are less than 5 nM and 16 nM.
On to `CCNC(=O)c1noc(-c2cc(C(C)C)c(O)cc2O)c1NC(=O)c1ccc2cc[nH]c2c1`, for which the IC50 was determined as 33 nM in data set [2] and 170 nM in data set [6].
With `CCNC(=O)c1noc(-c2cc(C(C)C)c(O)cc2O)c1NC(=O)c1cc(CN2CCOCC2)on1`, the result in data set [15], in data set [16], in [17] and in data set [18] was Active. Besides, in data set [1], the Activity was 7%. The IC50 is 40 nM in data set [2] and 200 nM in data set [6]. The compound further gave an MTD in [3] of 60 mg/kg. The inhibition in vivo at 60 mg/kg in data set [4] turned out to be 48%.
As to `CCNC(=O)c1noc(-c2cc(Cl)c(O)cc2O)c1NC(=O)C12CC3CC(CC(C3)C1)C2`, the values for the IC50 in [2] and in data set [6] were 250 nM and 750 nM, respectively.
The matching figures for `CCNC(=O)c1noc(-c2cc(C(C)C)c(O)cc2O)c1NC(=O)[C@H]1CC[C@H](CNC)CC1`: 8.6 nM and greater than 1000 nM.
